Assay results taken from patent US20100267653A1, “USE OF COUMARIN DERIVATIVES IN ANTIFUNGAL THERAPY” (priority 2006, published 2010).
≈ marks a conversion by molar mass, not a printed value. Where two headings read alike, the source gives them in different places.

What was measured:
[1] = tested on: Trichophyton rubrum NCPF118; assay: Antifungal activity, growth in RPMI 1640 microtitre plates (OD 530 nm); format: cell-based; settings: for MIC: T. rubrum NCPF118, 30° C.
Method: (§1) Esculin, esculetin and a range of other coumarins and their glycosides were tested for their antifungal activity against Trichophyton rubrum, Trichophyton interdigitale and other fungi isolated from nails and skin.
(§2) Suspensions of fungal conidia and hyphal fragments for use as experimental inocula were prepared by adding 3 ml of demineralised water or 0.15% (w/v) NaCl solution to a slope culture which had been incubated at 30° C. for 7 to 10 days and probing the surface of the culture with a sterile plastic transfer pipette. […] The resulting suspension was filtered through a double layer of sterile surgical gauze; if necessary a further volume of up to 3 ml of water or 0.15% (w/v) NaCl was used to wash through any spores or small hyphal fragments held on the gauze. 100 μl of this suspension, adjusted to an optical density between 0.14 and 0.16 at 530 nm (corresponding to between 0.5 and 1.5×10^6 propagules/ml) was added to the wells in sterile 96-well microtitre plates to which 100 μl of 2× strength RPMI 1640 media (a chemically-defined nutrient medium widely used in tissue culture and antimicrobial resistance testing) had been added. Inocula prepared in this way were used in all of the experiments; additionally, for some experiments with esculin shown in FIG. 4, the results obtained with standard inocula prepared as described above (labelled “young inoculum” in FIG. 4), were compared with the results obtained in similar tests using inocula which had been cultured for up to 9 weeks (labelled “old inoculum” in FIG. 4). As appropriate, coumarins were pre-dissolved in 2× strength RPMI 1640 medium before addition to the plate. Experiments with the yeasts Candida albicans and Candida krusei were set up in the same way, but in these cases, filtration of the cell suspensions was not necessary.
(§3) Solubilisation of other compounds required the presence of DMSO. Esculetin, daphnetin, 4-(trifluoromethyl) coumarin, 4-(trifluoromethyl)-coumarin-7-0-glucose and cichoriin were dissolved in DMSO at 1000× final test concentration; when this solution was diluted to the concentration used in the experiments using 2× strength RPMI 1640 medium, the final concentration of DMSO was […] which alone had no effect on the fungi when tested in several experiments performed. Fraxetin required a final concentration of 0.2% DMSO, but this too had no effect on the growth of the fungi when tested in separate experiments.
(§4) A series of dilutions of the coumarin solutions was prepared on the plates by mixing known volumes of the coumarin stock solutions in the wells with fresh volumes of 2×RPMI 1640 medium. Each concentration of coumarin was studied in triplicate wells. For observations on Trichophyton rubrum NCPF118 and Trichophyton interdigitale NCPF335, obtained from the National Collection of Pathogenic Fungi (Bristol), the plates were incubated in a Bio-Tek Powerwave XS scanning plate reader at 30° C., and fungal growth within the plates was measured at intervals of 2 h for up to 72 h or 96 h as specified in the text by recording the absorbance (optical density) of the wells at 530 nm. Observations on Candida albicans and Candida krusei were made in the same way, but the incubation temperature was 37° C. and the incubation time was 48 h. For observations with clinical fungal isolates obtained from the collection of M. Monod (Lausanne, Switzerland), the procedure was as described above except that in response to the relatively slow growth of these isolates, incubations were performed in a static incubator at 30° C. and the plates were read manually in a Bio-Tek Powerwave XS scanning plate reader at intervals of 24 h for up to 168 h, being returned to the incubator after each reading. Malassezia furfur grows poorly in the system described above, so for this organism, a standard inoculum of M. furfur was mixed with an equal volume of a solution of esculetin and the mixture was plated onto Petri dishes containing Sabouraud's agar medium. […]

[2] = Solubility of coumarins in RPMI 1640 media and DMSO; format: physicochemical; settings: for solubility: aqueous buffer, kinetic from dmso stock, pH = 7.0, in presence of the DMSO concentration of the same table line
Method: The solubility of the aglycones was compared to the respective glycoside in RPMI 1640 media and in DMSO.
as §3

[3] = tested on: Trichophyton interdigitale NCPF335; assay: Antifungal activity, growth in RPMI 1640 microtitre plates (OD 530 nm); format: cell-based; settings: for MIC: Trichophyton interdigitale, T. interdigitale NCPF335, 30° C.
Method: as §1, §2, §3, §4

[4] = tested on: Candida albicans, Cryptococcus neoformans, Saccharomyces cerevisiae and Aspergillus niger; settings: Sardari et al, Bioorg. Med. Chem. 7, 1999; cited from earlier work
[5] = tested on: T. mentagrophytes var interdigitale strain 386; assay: Sensitivity of clinical isolates of dermatophytes to esculetin; format: cell-based, Trichophyton mentagrophytes var. interdigitale; parameters: key to Sensitive (S) or Resistant (R): Sensitive (S); Resistant (R); settings: strain 386, 1 strain tested
Method: as §1
(§5) Suspensions of fungal conidia and hyphal fragments for use as experimental inocula were prepared by adding 3 ml of demineralised water or 0.15% (w/v) NaCl solution to a slope culture which had been incubated at 30° C. for 7 to 10 days and probing the surface of the culture with a sterile plastic transfer pipette. […] The resulting suspension was filtered through a double layer of sterile surgical gauze; if necessary a further volume of up to 3 ml of water or 0.15% (w/v) NaCl was used to wash through any spores or small hyphal fragments held on the gauze. […]
(§6) A series of dilutions of the coumarin solutions was prepared on the plates by mixing known volumes of the coumarin stock solutions in the wells with fresh volumes of 2×RPMI 1640 medium. […] For observations on Trichophyton rubrum NCPF118 and Trichophyton interdigitale NCPF335, obtained from the National Collection of Pathogenic Fungi (Bristol), the plates were incubated in a Bio-Tek Powerwave XS scanning plate reader at 30° C., and fungal growth within the plates was measured at intervals of 2 h for up to 72 h or 96 h as specified in the text by recording the absorbance (optical density) of the wells at 530 nm. […]

T. mentagrophytes = assay: as above; format: cell-based, Trichophyton mentagrophytes; parameters: key to Sensitive (S) or Resistant (R): Sensitive (S); Resistant (R); settings: 27 strains tested
Method: as §1, §5, §6

T. tonsurans = assay: as above; format: cell-based, Trichophyton tonsurans; parameters: key to Sensitive (S) or Resistant (R): Sensitive (S); Resistant (R); settings: 2 strains tested
Method: as §1, §5, §6

Trichophyton rubrum = assay: as above; format: cell-based; parameters: key to Sensitive (S) or Resistant (R): Sensitive (S); Resistant (R); settings: 48 strains tested
Method: as §1
(§7) Suspensions of fungal conidia and hyphal fragments for use as experimental inocula were prepared by adding 3 ml of demineralised water or 0.15% (w/v) NaCl solution to a slope culture which had been incubated at 30° C. for 7 to 10 days and probing the surface of the culture with a sterile plastic transfer pipette. […] The resulting suspension was filtered through a double layer of sterile surgical gauze; if necessary a further volume of up to 3 ml of water or 0.15% (w/v) NaCl was used to wash through any spores or small hyphal fragments held on the gauze. 100 μl of this suspension, adjusted to an optical density between 0.14 and 0.16 at 530 nm (corresponding to between 0.5 and 1.5×10^6 propagules/ml) was added to the wells in sterile 96-well microtitre plates to which 100 μl of 2× strength RPMI 1640 media (a chemically-defined nutrient medium widely used in tissue culture and antimicrobial resistance testing) had been added. Inocula prepared in this way were used in all of the experiments; additionally, for some experiments with esculin shown in FIG. 4, the results obtained with standard inocula prepared as described above (labelled “young inoculum” in FIG. 4), were compared with the results obtained in similar tests using inocula which had been cultured for up to 9 weeks (labelled “old inoculum” in FIG. 4). As appropriate, coumarins were pre-dissolved in 2× strength RPMI 1640 medium before addition to the plate. […]
as §4, with “Each concentration of coumarin was studied in triplicate wells.” left out, “Observations on Candida albicans and Candida krusei were made in the same way, but the incubation temperature was 37° C. and the incubation time was 48 h.” left out, “reading.” for “reading. Malassezia furfur grows poorly in the system described above, so for this organism, a standard inoculum of M. furfur was mixed with an equal volume of a solution of esculetin and the mixture was plated onto Petri dishes containing Sabouraud's agar medium.”

Microsporum canis = assay: as above; format: cell-based; parameters: key to Sensitive (S) or Resistant (R): Sensitive (S); Resistant (R); settings: 4 strains tested
Method: as §1, §7
as §4, with “Each concentration of coumarin was studied in triplicate wells.” left out, “Observations on Candida albicans and Candida krusei were made in the same way, but the incubation temperature was 37° C. and the incubation time was 48 h.” left out, “reading.” for “reading. Malassezia furfur grows poorly in the system described above, so for this organism, a standard inoculum of M. furfur was mixed with an equal volume of a solution of esculetin and the mixture was plated onto Petri dishes containing Sabouraud's agar medium.”

T. rubrum strain 1072 = assay: as above; format: cell-based, Trichophyton rubrum; parameters: key to Sensitive (S) or Resistant (R): Sensitive (S); Resistant (R); settings: T. rubrum strain 1072, 3 tested
Method: as §1, §5, §6

Fusarium spp. = assay: Sensitivity of other fungal isolates of pathogenic fungi to esculetin; format: cell-based; parameters: key to Sensitive (S) or Resistant (R): Sensitive (S); Resistant (R); settings: 15 strains tested
Method: as §1, §2, §3, §4

Curvularia spp. = assay: as above; format: cell-based; parameters: key to Sensitive (S) or Resistant (R): Sensitive (S); Resistant (R); settings: 1 strain tested
Method: as §1, §2, §3, §4

Alternaria spp. = assay: as above; format: cell-based; parameters: key to Sensitive (S) or Resistant (R): Sensitive (S); Resistant (R); settings: 1 strain tested
Method: as §1, §2, §3, §4

[6] = tested on: Scopulariopsis brevicaulis; assay: as above; format: cell-based; parameters: key to Sensitive (S) or Resistant (R): Sensitive (S); Resistant (R); settings: 4 strains tested
Method: as §1, §2, §3, §4

Aspergillus fumigatus = assay: as above; format: cell-based; parameters: key to Sensitive (S) or Resistant (R): Sensitive (S); Resistant (R); settings: 1 strain tested
Method: as §1, §2, §3, §4

T. soudanense = assay: Sensitivity of clinical isolates of dermatophytes to esculetin; format: cell-based, Trichophyton soudanense; parameters: key to Sensitive (S) or Resistant (R): Sensitive (S); Resistant (R); settings: 2 strains tested
Method: as §1, §5, §6

M. gypseum = assay: as above; format: cell-based, Microsporum gypseum; parameters: key to Sensitive (S) or Resistant (R): Sensitive (S); Resistant (R); settings: clinical isolate, 1 strain tested
Method: as §1, §5, §6

[7] = DMSO present for the stated solubility in RPMI 1640
[8] = RPMI 1640 medium with DMSO co-solvent
[9] = Trichophyton rubrum, read-out: MIC
[10] = old inoculum (cultured up to 9 weeks) versus young inoculum, FIG. 4

Cc1cc(=O)oc2cc(O)c(O)cc12 [4 methyl esculetin]
MIC [1]: 1000 µM (≈ 192 µg/mL)

O=c1cc(C(F)(F)F)c2ccc(O)cc2o1 [4-(trifluoromethyl)coumarin, 7-hydroxy-4-(trifluoromethyl)coumarin]
solubility (in words) [2]: only being soluble at low concentrations
DMSO Concentration [2, 7]: 0.2 % v/v
solubility [2, 8]: 2000 µM
MIC [1, 9]: 1000 µM (≈ 230 µg/mL)
activity of halogenated coumarin aglycone versus T. rubrum NCPF118 ([1]; at concentrations of 1-2 mM, FIG. 6): significantly antifungal

O=c1cc(C(F)(F)F)c2ccc(OC3O[C@H](CO)[C@@H](O)[C@H](O)[C@H]3O)cc2o1 (some centres unmarked) [4-(trifluoromethyl)coumarin-7-glucoside]
DMSO Concentration ([2]; pH 7): 0 % v/v

O=c1ccc2ccc(O)c(O)c2o1 [Daphnetin, 7,8-dihydroxycoumarin]
DMSO Concentration [2, 7]: 0.1 % v/v
solubility [2]: 5000 µM
MIC [1, 9]: 500 µM (≈ 89.1 µg/mL)
MIC [3]: 250 µM (≈ 44.5 µg/mL)

O=c1ccc2cc(O)c(O)cc2o1 [Esculetin, 6,7 dihydroxycoumarin]
solubility [2, 8]: 5000 µM
DMSO Concentration ([2]; pH 7): 0.1 % v/v
antifungal activity against the fungi tested [4]: minimal antifungal activity
MIC esculetin, range in mM [5]: ≧2 mM
Sensitive (S) or Resistant (R) [5]: R
MIC esculetin, range in mM (T. mentagrophytes): 1.1 ± 0.5 mM (≈ 196 µg/mL)
Sensitive (S) or Resistant (R) (T. mentagrophytes): S
MIC esculetin, range in mM (T. tonsurans): 0.25 ± 0.18 mM (≈ 44.5 µg/mL)
Sensitive (S) or Resistant (R) (T. tonsurans): S
MIC esculetin, range in mM (Trichophyton rubrum): 0.54 ± 0.37 mM (≈ 96.2 µg/mL)
Sensitive (S) or Resistant (R) (Trichophyton rubrum): S
MIC esculetin, range in mM (Microsporum canis): 1.0 ± 0.58 mM (≈ 178 µg/mL)
Sensitive (S) or Resistant (R) (Microsporum canis): S
MIC esculetin, range in mM (T. rubrum strain 1072): ≧2 mM
Sensitive (S) or Resistant (R) (T. rubrum strain 1072): R
Sensitive (S) or Resistant (R) (Fusarium spp.): R
MIC (Fusarium spp.; Fusarium): ≥ 2000 µM
Sensitive (S) or Resistant (R) (Curvularia spp.): R
MIC (Curvularia spp.; Curvularia): ≥ 2000 µM
Sensitive (S) or Resistant (R) (Alternaria spp.): S
MIC (Alternaria spp.; Alternaria): 1000 µM (≈ 178 µg/mL)
Sensitive (S) or Resistant (R) [6]: R
MIC ([6]; Scopulariopsis brevicaulis): ≥ 2000 µM
Sensitive (S) or Resistant (R) (Aspergillus fumigatus): R
MIC (Aspergillus fumigatus; Aspergillus fumigatus): ≥ 2000 µM
MIC esculetin, range in mM (T. soudanense): 0.31 ± 0.27 mM (≈ 55.2 µg/mL)
Sensitive (S) or Resistant (R) (T. soudanense): S
antifungal effect versus T. rubrum NCPF118 ([1]; FIG. 3): dose-dependent antifungal effect
MIC esculetin, range in mM (M. gypseum): ≧2 mM
Sensitive (S) or Resistant (R) (M. gypseum): R

O=c1ccc2cc(OC3OC(CO)C(O)C(O)C3O)c(O)cc2o1 (centres unmarked) [Esculin, 6,7 dihydroxycoumarin-6-glucoside]
DMSO Concentration [2, 7]: 0 % v/v
solubility [2]: 20000 µM
solubility in 2×RPMI 1640 solution (in words) ([2]; without DMSO): dissolves readily
antifungal activity against the fungi tested [4]: minimal antifungal activity
effect on the growth of Trichophyton rubrum NCPF118 ([1]; addition of β-glucosidase and esculin, FIG. 1): significantly inhibits fungal growth
sensitivity of older cultures of T. rubrum NCPF118 [1, 10]: more sensitive
effect on the growth of Trichophyton interdigitale NCPF335 ([3]; addition of β-glucosidase and esculin, FIG. 2): significantly inhibits fungal growth
sensitivity of older cultures of T. interdigitale NCPF335 [3, 10]: more sensitive

COc1cc2ccc(=O)oc2c(O)c1O [Fraxetin, 7,8 dihydroxy-6-methoxycoumarin]
DMSO Concentration [2, 7]: 0.4 % v/v
solubility [2]: 5000 µM
MIC [1, 9]: 250 µM (≈ 52 µg/mL)
MIC [3]: 500 µM (≈ 104 µg/mL)
